In the supplement of paper PMC10307832:

What was measured:
Assay in all cases: relative viability (nuclei count vs DMSO), 5 days (fraction); higher = more cells survive
Ponatinib + Foretinib = compound: Cc1ccc(C(=O)Nc2ccc(CN3CCN(C)CC3)c(C(F)(F)F)c2)cc1C#Cc1cnc2cccnn12 [Ponatinib] + COc1cc2c(Oc3ccc(NC(=O)C4(C(=O)Nc5ccc(F)cc5)CC4)cc3F)ccnc2cc1OCCCN1CCOCC1 [Foretinib] (partner 0.25 µM)
Outline: (§1)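 Lung cancer cell lines in 1536-well plates were dosed by pin tool the day after seeding, either with one drug alone or with a fixed anchor-drug dose plus five library-drug doses (not always all listed) in √10 steps. After 5 days, cells were fixed and their nuclei stained in one step (final 0.05% Triton X-100, 1% formaldehyde, 1 ug/ml Hoechst), then counted on 4× images. Relative viability is the nuclei count in treated wells divided by that in vehicle wells. Values are medians of duplicate plates.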

Ponatinib + Lapatinib = compound: Cc1ccc(C(=O)Nc2ccc(CN3CCN(C)CC3)c(C(F)(F)F)c2)cc1C#Cc1cnc2cccnn12 [Ponatinib] + CS(=O)(=O)CCNCc1ccc(-c2ccc3ncnc(Nc4ccc(OCc5cccc(F)c5)c(Cl)c4)c3c2)o1 [Lapatinib] (partner 2 µM)
Outline: as §1

Pazopanib + Dasatinib = compound: Cc1ccc(Nc2nccc(N(C)c3ccc4c(C)n(C)nc4c3)n2)cc1S(N)(=O)=O [Pazopanib] + Cc1nc(Nc2ncc(C(=O)Nc3c(C)cccc3Cl)s2)cc(N2CCN(CCO)CC2)n1 [Dasatinib] (partner 0.075 µM)
Outline: as §1

Pazopanib + Olaparib = compound: Cc1ccc(Nc2nccc(N(C)c3ccc4c(C)n(C)nc4c3)n2)cc1S(N)(=O)=O [Pazopanib] + O=C(c1cc(Cc2n[nH]c(=O)c3ccccc23)ccc1F)N1CCN(C(=O)C2CC2)CC1 [Olaparib] (partner 8 µM)
Outline: as §1

UMC-11
relative viability (Ponatinib + Foretinib; first compound 0.002 µM): 1.06 | relative viability (Ponatinib + Foretinib; first compound 0.006325 µM): 1.04 | relative viability (Ponatinib + Foretinib; first compound 0.06325 µM): 1.25 | relative viability (Ponatinib + Foretinib; first compound 0.2 µM): 1.03 | relative viability (Ponatinib + Lapatinib; first compound 0.002 µM): 1 | relative viability (Ponatinib + Lapatinib; first compound 0.006325 µM): 1.05 | relative viability (Ponatinib + Lapatinib; first compound 0.06325 µM): 1.17 | relative viability (Ponatinib + Lapatinib; first compound 0.2 µM): 0.988 | relative viability (Pazopanib + Dasatinib; first compound 0.01 µM): 0.455 | relative viability (Pazopanib + Dasatinib; first compound 0.03162 µM): 0.459 | relative viability (Pazopanib + Dasatinib; first compound 0.1 µM): 0.568 | relative viability (Pazopanib + Dasatinib; first compound 0.3162 µM): 0.467 | relative viability (Pazopanib + Dasatinib; first compound 1 µM): 0.432 | relative viability (Pazopanib + Olaparib; first compound 0.01 µM): 0.425 | relative viability (Pazopanib + Olaparib; first compound 0.03162 µM): 0.359 | relative viability (Pazopanib + Olaparib; first compound 0.1 µM): 0.41 | relative viability (Pazopanib + Olaparib; first compound 0.3162 µM): 0.509 | relative viability (Pazopanib + Olaparib; first compound 1 µM): 0.34
